Test results as given in ChEMBL document CHEMBL4715829, “Heterodimeric Rifampicin-Tobramycin conjugates break intrinsic resistance of Pseudomonas aeruginosa to doxycycline and chloramphenicol in vitro and in a Galleria mellonella in vivo model” (Eur J Med Chem, 2019).
Activity calls are given as the source filed them. No cut-off for these calls is given here.

Legend:
Pseudomonas aeruginosa [1] = test: Antibacterial activity against Pseudomonas aeruginosa 259-96918 assessed as reduction in bacterial growth by measuring chloramphenicol MIC at 2 ug/ml incubated for 18 hrs in presence of chloramphenicol by broth microdilution assay (reference value: 1024 ug/ml); format: functional; conditions: dose 2 µg/ml
Pseudomonas aeruginosa [2] = test: Antibacterial activity against Pseudomonas aeruginosa 262-101856 assessed as reduction in bacterial growth by measuring doxycycline MIC at 16 ug/ml incubated for 18 hrs in presence of doxycycline by broth microdilution assay (reference value: 1024 ug/ml); format: functional; conditions: dose 16 µg/ml
Pseudomonas aeruginosa [3] = test: Antibacterial activity against Pseudomonas aeruginosa 259-96918 assessed as reduction in bacterial growth by measuring doxycycline MIC at 8 ug/ml incubated for 18 hrs in presence of doxycycline by broth microdilution assay (reference value: 32 ug/ml); format: functional; conditions: dose 8 µg/ml
Pseudomonas aeruginosa [4] = test: Antibacterial activity against Pseudomonas aeruginosa 264-101354 assessed as reduction in bacterial growth by measuring doxycycline MIC at 8 ug/ml incubated for 18 hrs in presence of doxycycline by broth microdilution assay (reference value: 64 ug/ml); format: functional; conditions: dose 8 µg/ml
Pseudomonas aeruginosa [5] = test: Antibacterial activity against Pseudomonas aeruginosa 100036 assessed as potentiation of chloramphenicol-induced antibacterial activity by measuring chloramphenicol MIC at 7.6 uM incubated for 18 hrs in presence of chloramphenicol by broth microdilution assay (reference value: 1024 ug/ml); format: functional
Pseudomonas aeruginosa [6] = test: Antibacterial activity against Pseudomonas aeruginosa 101243 assessed as potentiation of chloramphenicol-induced antibacterial activity by measuring chloramphenicol MIC at 7.6 uM incubated for 18 hrs in presence of chloramphenicol by broth microdilution assay (reference value: 1 ug/ml); format: functional
Pseudomonas aeruginosa [7] = test: Antibacterial activity against Pseudomonas aeruginosa 259-96918 assessed as potentiation of doxycycline-induced antibacterial activity by measuring doxycycline MIC at 7.6 uM incubated for 18 hrs in presence of doxycycline by broth microdilution assay (reference value: 32 ug/ml); format: functional
Pseudomonas aeruginosa [8] = test: Antibacterial activity against Pseudomonas aeruginosa 114228 assessed as potentiation of doxycycline-induced antibacterial activity by measuring doxycycline MIC at 7.6 uM incubated for 18 hrs in presence of doxycycline by broth microdilution assay (reference value: 32 ug/ml); format: functional
Pseudomonas aeruginosa [9] = test: Potentiation of doxycycline-induced antibacterial activity against Pseudomonas aeruginosa 101885 assessed as fold change in doxycycline MIC at 7.6 uM incubated for 18 hrs in presence of doxycycline by broth microdilution assay relative to control; format: functional
Pseudomonas aeruginosa [10] = test: Potentiation of doxycycline-induced antibacterial activity against Pseudomonas aeruginosa 114228 assessed as fold change in doxycycline MIC at 7.6 uM incubated for 18 hrs in presence of doxycycline by broth microdilution assay relative to control; format: functional
Pseudomonas aeruginosa [11] = test: (§1) Potentiation of chloramphenicol-induced antibacterial activity against Pseudomonas aeruginosa 101885 assessed as fold change in chloramphenicol MIC at 7.6 uM incubated for 18 hrs in presence of chloramphenicol by broth microdilution assay relative to control; format: functional
Enterobacter cloacae = test: Potentiation of doxycycline-induced antibacterial activity against Enterobacter cloacae ATCC 117029 assessed as fold change in doxycycline MIC at 7.6 uM incubated for 18 hrs in presence of doxycycline by broth microdilution assay relative to control; format: functional
Klebsiella pneumoniae [12] = test: Potentiation of chloramphenicol-induced antibacterial activity against Klebsiella pneumoniae ATCC 16381 assessed as fold change in chloramphenicol MIC at 7.6 uM incubated for 18 hrs in presence of chloramphenicol by broth microdilution assay relative to control; format: functional
Pseudomonas aeruginosa [13] = test: Antibacterial activity against Pseudomonas aeruginosa 100036 assessed as potentiation of doxycycline-induced antibacterial activity by measuring doxycycline MIC at 9.8 uM incubated for 18 hrs in presence of doxycycline by broth microdilution assay (reference value: 64 ug/ml); format: functional
Pseudomonas aeruginosa [14] = test: Antibacterial activity against Pseudomonas aeruginosa 262-101856 assessed as potentiation of chloramphenicol-induced antibacterial activity by measuring chloramphenicol MIC at 9.8 uM incubated for 18 hrs in presence of chloramphenicol by broth microdilution assay (reference value: 2048 ug/ml); format: functional
Pseudomonas aeruginosa [15] = test: Antibacterial activity against Pseudomonas aeruginosa 91433 assessed as potentiation of chloramphenicol-induced antibacterial activity by measuring chloramphenicol MIC at 9.8 uM incubated for 18 hrs in presence of chloramphenicol by broth microdilution assay (reference value: 8 ug/ml); format: functional
Pseudomonas aeruginosa [16] = test: Antibacterial activity against Pseudomonas aeruginosa 101243 assessed as fractional inhibitory concentration incubated for 18 hrs in presence of rifampicin by broth microdilution assay; format: functional
Pseudomonas aeruginosa [17] = test: Antibacterial activity against Pseudomonas aeruginosa 101885 assessed as fractional inhibitory concentration index incubated for 18 hrs in presence of minocycline by broth microdilution assay; format: functional
Pseudomonas aeruginosa [18] = test: Antibacterial activity against Pseudomonas aeruginosa 260-97103 assessed as fractional inhibitory concentration index incubated for 18 hrs in presence of tigecycline by broth microdilution assay; format: functional
Pseudomonas aeruginosa [19] = test: Antibacterial activity against Pseudomonas aeruginosa 91433 assessed as fractional inhibitory concentration index incubated for 18 hrs in presence of tigecycline by broth microdilution assay; format: functional
Pseudomonas aeruginosa [20] = test: Antibacterial activity against Pseudomonas aeruginosa 101243 assessed as fractional inhibitory concentration index incubated for 18 hrs in presence of rifampicin by broth microdilution assay; format: functional
Pseudomonas aeruginosa [21] = test: (§2) Potentiation of doxycycline-induced antibacterial activity against wild type Pseudomonas aeruginosa PAO1 assessed as fold change in doxycycline MIC at <=9.8 uM incubated for 18 hrs in presence of doxycycline by broth microdilution assay; format: functional; conditions: dose microM <=9.8
Pseudomonas aeruginosa [22] = test: as §2, with “against” for “against wild type”, “PAO750 harboring MexAB-OprM, MexCD-OprJ, MexEF-OprN, Mex JK, MexXY and the OM protein OpmH deletion mutant” for “PAO1”; format: functional; conditions: dose microM <=9.8
Pseudomonas aeruginosa [23] = test: as §1, with “PAO750 harboring MexAB-OprM, MexCD-OprJ, MexEF-OprN, Mex JK, MexXY and the OM protein OpmH deletion mutant” for “101885”, “<=9.8” for “7.6”, “assay” for “assay relative to control”; format: functional; conditions: dose microM <=9.8
Pseudomonas aeruginosa [24] = test: Potentiation of chloramphenicol-induced bactericidal activity against Pseudomonas aeruginosa PAO1 assessed as reduction in bacterial colonies at 4.9 to 9.8 microM incubated for upto 24 hrs in LB medium in presence of chloramphenicol followed by plating on agar plate and measured after 20 hrs by time-kill assay; format: functional, organism-based; conditions: dose 4.9-9.8 µM, time hrs <=44
Pseudomonas aeruginosa [25] = test: Potentiation of doxycycline-induced antibacterial activity against Pseudomonas aeruginosa 259-96918 assessed as fold change in doxycycline MIC at 9.8 uM incubated for 18 hrs in presence of doxycycline by broth microdilution assay relative to control; format: functional
Pseudomonas aeruginosa [26] = test: Potentiation of chloramphenicol-induced antibacterial activity against Pseudomonas aeruginosa 262-101856 assessed as fold change in chloramphenicol MIC at 9.8 uM incubated for 18 hrs in presence of chloramphenicol by broth microdilution assay relative to control; format: functional
Klebsiella pneumoniae [27] = test: Potentiation of doxycycline-induced antibacterial activity against Klebsiella pneumoniae ATCC 16381 assessed as fold change in doxycycline MIC at 9.8 uM incubated for 18 hrs in presence of doxycycline by broth microdilution assay relative to control; format: functional
Klebsiella pneumoniae [28] = test: Potentiation of chloramphenicol-induced antibacterial activity against Klebsiella pneumoniae ATCC 16381 assessed as fold change in chloramphenicol MIC at 9.8 uM incubated for 18 hrs in presence of chloramphenicol by broth microdilution assay relative to control; format: functional

## CO[C@H]1/C=C/O[C@@]2(C)Oc3c(C)c(O)c4c(O)c(c(/C=N/N5CCN(C)CC5)c(O)c4c3C2=O)NC(=O)/C(C)=C\C=C\[C@H](C)[C@H](O)[C@@H](C)[C@@H](O)[C@@H](C)[C@H](OC(C)=O)[C@@H]1C [RIFAMPIN]
Pseudomonas aeruginosa [1]
  MIC: 1020 mg/L
Pseudomonas aeruginosa [2]
  MIC: 1020 mg/L

## NC[C@H]1O[C@H](O[C@H]2[C@H](O)[C@@H](O[C@H]3O[C@H](CO)[C@@H](O)[C@H](N)[C@H]3O)[C@H](N)C[C@@H]2N)[C@H](N)C[C@@H]1O [TOBRAMYCIN]
Pseudomonas aeruginosa [3]
  MIC: 32 mg/L
Pseudomonas aeruginosa [4]
  MIC: 64 mg/L

## CO[C@H]1/C=C/O[C@@]2(C)Oc3c(C)c(O)c4c(O)c(c(/C=N/N5CCN(Cc6cn(CCCCCCCCCCCCO[C@@H]7[C@@H](O[C@H]8O[C@H](CO)[C@@H](O)[C@H](N)[C@H]8O)[C@H](N)C[C@H](N)[C@H]7O[C@H]7O[C@H](CN)[C@@H](O)C[C@H]7N)nn6)CC5)c(O)c4c3C2=O)NC(=O)/C(C)=C\C=C\[C@H](C)[C@H](O)[C@@H](C)[C@@H](O)[C@@H](C)[C@H](OC(C)=O)[C@@H]1C.O=C(O)C(F)(F)F.O=C(O)C(F)(F)F.O=C(O)C(F)(F)F.O=C(O)C(F)(F)F.O=C(O)C(F)(F)F
Pseudomonas aeruginosa [5]
  MIC: 4 mg/L
Pseudomonas aeruginosa [6]
  MIC: 0.0625 mg/L
Pseudomonas aeruginosa [7]
  MIC: 0.25 mg/L
Pseudomonas aeruginosa [8]
  MIC: 2 mg/L
Pseudomonas aeruginosa [9]
  fold change (FC): 4
Pseudomonas aeruginosa [10]
  fold change (FC): 4
Pseudomonas aeruginosa [11]
  fold change (FC): 4
Enterobacter cloacae
  fold change (FC): 0
Klebsiella pneumoniae [12]
  fold change (FC): 0

## CO[C@H]1/C=C/O[C@@]2(C)Oc3c(C)c(O)c4c(O)c(c(/C=N/N5CCN(Cc6cn(CCCCCCO[C@@H]7[C@@H](O[C@H]8O[C@H](CO)[C@@H](O)[C@H](N)[C@H]8O)[C@H](N)C[C@H](N)[C@H]7O[C@H]7O[C@H](CN)[C@@H](O)C[C@H]7N)nn6)CC5)c(O)c4c3C2=O)NC(=O)/C(C)=C\C=C\[C@H](C)[C@H](O)[C@@H](C)[C@@H](O)[C@@H](C)[C@H](OC(C)=O)[C@@H]1C.Cl.Cl.Cl.Cl.Cl
Pseudomonas aeruginosa [13]
  MIC: 1 mg/L
Pseudomonas aeruginosa [14]
  MIC: 128 mg/L
Pseudomonas aeruginosa [15]
  MIC: 2 mg/L
Pseudomonas aeruginosa [16]
  FIC: 0.063
Pseudomonas aeruginosa [17]
  fractional inhibitory concentration index (FICI): 0.13
Pseudomonas aeruginosa [18]
  fractional inhibitory concentration index (FICI): <0.16
Pseudomonas aeruginosa [19]
  fractional inhibitory concentration index (FICI): 1.13
Pseudomonas aeruginosa [20]
  fractional inhibitory concentration index (FICI): 0.56
Pseudomonas aeruginosa [21]
  fold change (FC): 32
Pseudomonas aeruginosa [22]
  fold change (FC): 4
Pseudomonas aeruginosa [23]
  fold change (FC): 4
Pseudomonas aeruginosa [24]
  Activity: Active
Pseudomonas aeruginosa [25]
  fold change (FC): 4
Pseudomonas aeruginosa [26]
  fold change (FC): 4
Klebsiella pneumoniae [27]
  fold change (FC): 0
Klebsiella pneumoniae [28]
  fold change (FC): 0
